Measured values published in ChEMBL document CHEMBL1152560, “Substituted 2-arylbenzothiazoles as kinase inhibitors: hit-to-lead optimization” (Bioorg Med Chem, 2009).

Tests used:
[1] = molecular target: Ephrin type-A receptor 5 (Homo sapiens) (UniProt P54756); test: Residual activity of EPHA5 at 1 uM by microplate scintillation counting
[2] = molecular target: Tyrosine-protein kinase FRK (Homo sapiens) (UniProt P42685); test: Residual activity of FRK at 0.1 uM by microplate scintillation counting
Sequence of Tyrosine-protein kinase FRK (Homo sapiens) (P42685 whole entry): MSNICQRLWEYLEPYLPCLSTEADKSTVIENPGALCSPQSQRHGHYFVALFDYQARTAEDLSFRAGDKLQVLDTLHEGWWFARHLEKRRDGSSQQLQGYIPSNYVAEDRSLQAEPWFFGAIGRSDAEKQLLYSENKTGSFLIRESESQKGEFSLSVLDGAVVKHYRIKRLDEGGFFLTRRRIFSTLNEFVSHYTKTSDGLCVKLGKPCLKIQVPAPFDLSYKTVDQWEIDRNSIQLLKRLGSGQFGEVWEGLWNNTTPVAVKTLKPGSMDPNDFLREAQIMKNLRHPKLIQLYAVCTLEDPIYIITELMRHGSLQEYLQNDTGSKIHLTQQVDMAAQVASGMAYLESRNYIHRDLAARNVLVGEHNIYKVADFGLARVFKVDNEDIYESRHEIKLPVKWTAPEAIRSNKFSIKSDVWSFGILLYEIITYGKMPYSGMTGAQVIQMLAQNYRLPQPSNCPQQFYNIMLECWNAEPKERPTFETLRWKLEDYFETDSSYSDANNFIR

[3] = molecular target: SRSF protein kinase 1 (Homo sapiens) (UniProt Q96SB4); test: Residual activity of SRPK1 at 1 uM by microplate scintillation counting
Sequence of SRSF protein kinase 1 (Homo sapiens) (Q96SB4 whole entry): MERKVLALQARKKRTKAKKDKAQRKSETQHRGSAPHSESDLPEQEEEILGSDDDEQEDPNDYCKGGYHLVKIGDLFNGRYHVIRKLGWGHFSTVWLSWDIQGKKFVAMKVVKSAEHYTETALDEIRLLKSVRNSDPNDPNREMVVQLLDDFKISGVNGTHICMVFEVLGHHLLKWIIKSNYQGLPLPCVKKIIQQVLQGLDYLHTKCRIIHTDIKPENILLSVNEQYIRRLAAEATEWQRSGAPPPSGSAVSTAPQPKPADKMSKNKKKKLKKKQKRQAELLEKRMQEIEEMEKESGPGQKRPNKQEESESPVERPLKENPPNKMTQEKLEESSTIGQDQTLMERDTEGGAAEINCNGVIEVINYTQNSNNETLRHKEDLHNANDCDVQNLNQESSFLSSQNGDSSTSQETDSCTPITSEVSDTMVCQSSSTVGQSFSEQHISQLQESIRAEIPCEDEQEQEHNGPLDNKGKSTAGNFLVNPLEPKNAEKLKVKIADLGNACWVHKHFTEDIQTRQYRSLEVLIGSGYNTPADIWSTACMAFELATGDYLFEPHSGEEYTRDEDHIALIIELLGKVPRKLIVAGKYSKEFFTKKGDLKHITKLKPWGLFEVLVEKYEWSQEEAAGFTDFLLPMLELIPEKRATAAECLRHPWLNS

[4] = molecular target: Interleukin-1 receptor-associated kinase 1 (Homo sapiens) (UniProt P51617); test: Residual activity of IRAKI at 10 uM by microplate scintillation counting
Sequence of Interleukin-1 receptor-associated kinase 1 (Homo sapiens) (P51617 whole entry, looked up): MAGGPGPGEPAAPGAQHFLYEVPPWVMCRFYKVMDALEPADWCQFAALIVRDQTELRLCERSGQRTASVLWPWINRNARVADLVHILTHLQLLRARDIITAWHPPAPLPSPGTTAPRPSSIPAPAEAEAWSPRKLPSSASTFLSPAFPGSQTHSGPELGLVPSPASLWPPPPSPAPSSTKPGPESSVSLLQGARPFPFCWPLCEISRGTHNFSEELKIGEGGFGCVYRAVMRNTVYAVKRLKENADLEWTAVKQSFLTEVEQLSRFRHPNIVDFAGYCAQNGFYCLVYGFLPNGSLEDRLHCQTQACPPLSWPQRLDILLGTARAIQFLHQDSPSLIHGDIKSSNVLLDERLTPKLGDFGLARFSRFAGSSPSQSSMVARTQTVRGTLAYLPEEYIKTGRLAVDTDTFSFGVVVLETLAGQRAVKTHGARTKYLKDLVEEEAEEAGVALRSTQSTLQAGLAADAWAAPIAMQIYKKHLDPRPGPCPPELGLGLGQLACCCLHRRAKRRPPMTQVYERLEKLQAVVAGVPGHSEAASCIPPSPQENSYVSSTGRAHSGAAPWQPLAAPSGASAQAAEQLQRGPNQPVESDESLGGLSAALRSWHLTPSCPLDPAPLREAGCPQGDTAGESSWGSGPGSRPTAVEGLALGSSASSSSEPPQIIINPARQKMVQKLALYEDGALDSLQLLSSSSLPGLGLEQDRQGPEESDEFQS

[5] = molecular target: Tyrosine-protein kinase receptor UFO (Homo sapiens) (UniProt P30530); test: Residual activity of AXL at 1 uM by microplate scintillation counting
Sequence of Tyrosine-protein kinase receptor UFO (Homo sapiens) (P30530 whole entry): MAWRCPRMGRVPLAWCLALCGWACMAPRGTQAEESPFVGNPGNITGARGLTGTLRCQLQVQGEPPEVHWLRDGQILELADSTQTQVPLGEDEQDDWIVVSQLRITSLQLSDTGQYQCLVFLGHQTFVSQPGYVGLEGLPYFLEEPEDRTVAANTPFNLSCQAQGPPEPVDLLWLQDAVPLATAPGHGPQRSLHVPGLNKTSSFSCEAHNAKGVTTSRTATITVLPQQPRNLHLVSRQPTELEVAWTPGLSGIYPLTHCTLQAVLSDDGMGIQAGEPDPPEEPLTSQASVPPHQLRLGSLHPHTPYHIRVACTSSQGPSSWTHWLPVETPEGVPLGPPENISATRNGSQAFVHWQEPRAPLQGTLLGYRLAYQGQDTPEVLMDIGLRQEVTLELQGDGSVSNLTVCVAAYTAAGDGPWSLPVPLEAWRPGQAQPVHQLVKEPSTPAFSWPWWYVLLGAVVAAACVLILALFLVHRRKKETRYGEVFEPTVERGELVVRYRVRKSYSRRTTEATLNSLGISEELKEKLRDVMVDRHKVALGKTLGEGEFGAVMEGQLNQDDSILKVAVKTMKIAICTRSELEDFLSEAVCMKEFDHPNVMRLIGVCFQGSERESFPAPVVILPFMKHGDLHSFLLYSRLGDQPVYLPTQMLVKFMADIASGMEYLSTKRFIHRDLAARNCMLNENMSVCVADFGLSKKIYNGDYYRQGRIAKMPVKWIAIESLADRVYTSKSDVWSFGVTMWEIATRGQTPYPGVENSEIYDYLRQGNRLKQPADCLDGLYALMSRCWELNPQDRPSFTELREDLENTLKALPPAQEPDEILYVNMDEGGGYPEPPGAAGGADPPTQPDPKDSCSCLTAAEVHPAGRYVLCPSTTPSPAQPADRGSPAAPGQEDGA

[6] = molecular target: T1, Serine/threonine-protein kinase Nek1 (Homo sapiens) (UniProt Q96PY6); test: Residual activity of NEK1 at 10 uM by microplate scintillation counting
T1 sequence (whole entry): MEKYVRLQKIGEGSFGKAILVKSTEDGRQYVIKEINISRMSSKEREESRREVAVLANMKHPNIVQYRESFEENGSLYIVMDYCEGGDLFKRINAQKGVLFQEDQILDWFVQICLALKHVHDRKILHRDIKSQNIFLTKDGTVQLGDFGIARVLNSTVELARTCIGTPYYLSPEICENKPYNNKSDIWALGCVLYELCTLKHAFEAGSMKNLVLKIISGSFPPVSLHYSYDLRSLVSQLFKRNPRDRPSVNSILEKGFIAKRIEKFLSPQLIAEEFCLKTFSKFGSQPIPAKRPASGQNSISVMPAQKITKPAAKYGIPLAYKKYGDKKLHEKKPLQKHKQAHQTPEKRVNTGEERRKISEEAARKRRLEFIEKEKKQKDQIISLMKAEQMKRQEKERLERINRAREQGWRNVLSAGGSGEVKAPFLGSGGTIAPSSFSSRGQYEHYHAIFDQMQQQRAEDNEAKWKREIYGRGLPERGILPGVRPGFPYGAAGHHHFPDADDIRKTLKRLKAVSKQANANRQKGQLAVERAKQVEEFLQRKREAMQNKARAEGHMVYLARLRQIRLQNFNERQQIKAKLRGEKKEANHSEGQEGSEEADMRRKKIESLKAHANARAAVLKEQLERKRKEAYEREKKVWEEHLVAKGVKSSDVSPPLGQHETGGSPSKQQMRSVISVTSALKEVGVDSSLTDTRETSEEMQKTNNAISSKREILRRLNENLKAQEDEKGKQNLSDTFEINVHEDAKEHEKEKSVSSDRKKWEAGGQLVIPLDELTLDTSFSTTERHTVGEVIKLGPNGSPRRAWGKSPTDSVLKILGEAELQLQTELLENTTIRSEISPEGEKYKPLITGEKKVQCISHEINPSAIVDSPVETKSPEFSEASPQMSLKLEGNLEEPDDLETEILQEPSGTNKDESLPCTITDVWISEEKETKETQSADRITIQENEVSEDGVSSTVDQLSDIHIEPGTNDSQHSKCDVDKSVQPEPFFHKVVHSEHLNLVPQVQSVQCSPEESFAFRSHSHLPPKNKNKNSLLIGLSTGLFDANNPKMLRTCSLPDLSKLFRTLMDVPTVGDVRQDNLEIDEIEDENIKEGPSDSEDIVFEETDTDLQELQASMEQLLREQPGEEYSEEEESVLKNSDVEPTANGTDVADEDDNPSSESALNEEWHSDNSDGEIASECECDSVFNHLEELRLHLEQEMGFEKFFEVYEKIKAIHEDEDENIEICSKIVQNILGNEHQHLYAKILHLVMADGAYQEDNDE

[7] = molecular target: T2, Tyrosine-protein kinase ZAP-70 (Homo sapiens) (UniProt P43403); test: Residual activity of ZAP70 at 10 uM by microplate scintillation counting
T2 sequence (whole entry): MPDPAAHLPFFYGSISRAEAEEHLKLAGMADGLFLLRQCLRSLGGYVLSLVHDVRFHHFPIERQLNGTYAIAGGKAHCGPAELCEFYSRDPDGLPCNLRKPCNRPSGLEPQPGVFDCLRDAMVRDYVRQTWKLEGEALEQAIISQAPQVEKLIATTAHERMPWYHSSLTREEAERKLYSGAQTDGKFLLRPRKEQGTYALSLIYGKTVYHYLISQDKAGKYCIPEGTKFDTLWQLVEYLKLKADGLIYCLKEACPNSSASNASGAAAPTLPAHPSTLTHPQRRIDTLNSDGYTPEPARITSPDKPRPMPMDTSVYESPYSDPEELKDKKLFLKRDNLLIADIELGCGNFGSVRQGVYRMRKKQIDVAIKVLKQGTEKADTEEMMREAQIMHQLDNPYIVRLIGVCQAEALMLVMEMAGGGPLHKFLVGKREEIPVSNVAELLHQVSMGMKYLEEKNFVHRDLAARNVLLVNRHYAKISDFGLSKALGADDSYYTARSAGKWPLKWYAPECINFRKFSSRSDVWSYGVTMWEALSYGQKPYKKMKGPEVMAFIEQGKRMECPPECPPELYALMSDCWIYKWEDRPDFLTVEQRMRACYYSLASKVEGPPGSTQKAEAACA

[8] = molecular target: 3-phosphoinositide-dependent protein kinase 1 (Homo sapiens) (UniProt O15530); test: Residual activity of PDK1 at 0.1 uM by microplate scintillation counting
Sequence of 3-phosphoinositide-dependent protein kinase 1 (Homo sapiens) (O15530 whole entry, looked up): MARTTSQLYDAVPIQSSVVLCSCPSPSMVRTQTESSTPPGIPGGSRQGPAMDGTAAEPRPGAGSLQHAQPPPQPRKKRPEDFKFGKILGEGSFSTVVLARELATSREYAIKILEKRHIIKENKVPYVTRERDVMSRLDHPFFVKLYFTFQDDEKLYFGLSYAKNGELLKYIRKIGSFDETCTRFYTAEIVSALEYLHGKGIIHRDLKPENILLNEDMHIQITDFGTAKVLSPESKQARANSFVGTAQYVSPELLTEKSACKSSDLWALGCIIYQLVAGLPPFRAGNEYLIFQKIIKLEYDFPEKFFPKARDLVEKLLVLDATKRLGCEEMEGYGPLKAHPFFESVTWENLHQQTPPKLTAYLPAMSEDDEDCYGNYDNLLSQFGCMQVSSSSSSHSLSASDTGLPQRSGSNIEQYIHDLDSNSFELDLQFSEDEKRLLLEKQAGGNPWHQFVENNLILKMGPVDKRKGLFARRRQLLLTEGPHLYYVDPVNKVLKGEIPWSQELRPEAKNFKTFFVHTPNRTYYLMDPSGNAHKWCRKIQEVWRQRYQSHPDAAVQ

Sequence of Ephrin type-A receptor 5 (Homo sapiens) (P54756 whole entry): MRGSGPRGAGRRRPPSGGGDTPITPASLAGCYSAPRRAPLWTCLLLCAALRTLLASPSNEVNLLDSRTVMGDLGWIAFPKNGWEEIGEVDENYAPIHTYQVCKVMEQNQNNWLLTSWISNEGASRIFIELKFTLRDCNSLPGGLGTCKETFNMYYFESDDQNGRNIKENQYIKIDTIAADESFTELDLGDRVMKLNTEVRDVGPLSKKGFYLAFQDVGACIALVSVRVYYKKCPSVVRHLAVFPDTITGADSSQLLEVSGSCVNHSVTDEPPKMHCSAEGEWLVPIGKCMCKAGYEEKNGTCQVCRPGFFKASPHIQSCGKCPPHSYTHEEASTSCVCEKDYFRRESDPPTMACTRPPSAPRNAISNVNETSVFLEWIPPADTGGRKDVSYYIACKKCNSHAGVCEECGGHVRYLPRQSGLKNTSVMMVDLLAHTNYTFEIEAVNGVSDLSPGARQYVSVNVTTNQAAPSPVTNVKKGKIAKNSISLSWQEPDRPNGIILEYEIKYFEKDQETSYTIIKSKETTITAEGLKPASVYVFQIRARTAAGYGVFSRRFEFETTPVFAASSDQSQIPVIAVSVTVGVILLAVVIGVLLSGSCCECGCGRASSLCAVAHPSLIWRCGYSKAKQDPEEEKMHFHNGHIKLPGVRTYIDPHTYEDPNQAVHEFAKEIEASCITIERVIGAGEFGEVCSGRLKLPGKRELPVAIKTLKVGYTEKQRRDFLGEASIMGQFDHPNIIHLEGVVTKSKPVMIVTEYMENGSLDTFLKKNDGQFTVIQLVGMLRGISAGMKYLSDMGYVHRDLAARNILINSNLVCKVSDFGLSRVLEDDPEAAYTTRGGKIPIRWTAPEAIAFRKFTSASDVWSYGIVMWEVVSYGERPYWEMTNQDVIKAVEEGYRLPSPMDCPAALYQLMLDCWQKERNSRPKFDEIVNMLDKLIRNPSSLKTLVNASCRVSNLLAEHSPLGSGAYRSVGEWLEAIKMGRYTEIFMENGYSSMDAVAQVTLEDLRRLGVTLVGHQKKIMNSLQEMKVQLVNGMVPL

| SMILES | residual activity [1] [%] | residual activity [2] [%] | residual activity [3] [%] | residual activity [4] [%] | residual activity [5] [%] | residual activity [6] [%] | residual activity [7] [%] | residual activity [8] [%] |
| --- | --- | --- | --- | --- | --- | --- | --- | --- |
| COc1cc2c(Oc3ccc(-c4nc5ccccc5s4)cc3F)ncnc2cc1OCCCN1CCN(C)CC1 | 95 | 99 | 104 | 18 | 89 | 101 | 230 | 97 |
| COc1cc2c(Oc3ccc(-c4nc5ccccc5s4)cc3)ncnc2cc1OCCCN1CCCC1 | 119 | 100 | 100 | 18 | 71 | 93 | 166 | 95 |
| COc1cc2c(Oc3ccc(-c4nc5ccccc5s4)cc3)ncnc2cc1OCCCN1CCN(C)CC1 | 103 | 100 | 103 | 23 | 88 | 104 | 341 | 95 |
